This is an account of results in patent US20240174648A1, “Small Molecule Compound” (Technoderma Medicines Pte Ltd, priority 2019, published 2024).

Bounds are passed on as bounds.

One assay deals with JAK1 (Homo sapiens, UniProt P23458). Briefly: JAK kinase inhibition assay (EZ Reader, peptide substrate phosphorylation) - JAK1. Conditions: JAK1 kinase 20 nM; 8 concentration points, max 10 μM. It counts as biochemical. From the text: (§1) Assay for Identifying Inhibitory Effects of Compounds on JAK Kinases
Chain of JAK1 (P23458 whole entry): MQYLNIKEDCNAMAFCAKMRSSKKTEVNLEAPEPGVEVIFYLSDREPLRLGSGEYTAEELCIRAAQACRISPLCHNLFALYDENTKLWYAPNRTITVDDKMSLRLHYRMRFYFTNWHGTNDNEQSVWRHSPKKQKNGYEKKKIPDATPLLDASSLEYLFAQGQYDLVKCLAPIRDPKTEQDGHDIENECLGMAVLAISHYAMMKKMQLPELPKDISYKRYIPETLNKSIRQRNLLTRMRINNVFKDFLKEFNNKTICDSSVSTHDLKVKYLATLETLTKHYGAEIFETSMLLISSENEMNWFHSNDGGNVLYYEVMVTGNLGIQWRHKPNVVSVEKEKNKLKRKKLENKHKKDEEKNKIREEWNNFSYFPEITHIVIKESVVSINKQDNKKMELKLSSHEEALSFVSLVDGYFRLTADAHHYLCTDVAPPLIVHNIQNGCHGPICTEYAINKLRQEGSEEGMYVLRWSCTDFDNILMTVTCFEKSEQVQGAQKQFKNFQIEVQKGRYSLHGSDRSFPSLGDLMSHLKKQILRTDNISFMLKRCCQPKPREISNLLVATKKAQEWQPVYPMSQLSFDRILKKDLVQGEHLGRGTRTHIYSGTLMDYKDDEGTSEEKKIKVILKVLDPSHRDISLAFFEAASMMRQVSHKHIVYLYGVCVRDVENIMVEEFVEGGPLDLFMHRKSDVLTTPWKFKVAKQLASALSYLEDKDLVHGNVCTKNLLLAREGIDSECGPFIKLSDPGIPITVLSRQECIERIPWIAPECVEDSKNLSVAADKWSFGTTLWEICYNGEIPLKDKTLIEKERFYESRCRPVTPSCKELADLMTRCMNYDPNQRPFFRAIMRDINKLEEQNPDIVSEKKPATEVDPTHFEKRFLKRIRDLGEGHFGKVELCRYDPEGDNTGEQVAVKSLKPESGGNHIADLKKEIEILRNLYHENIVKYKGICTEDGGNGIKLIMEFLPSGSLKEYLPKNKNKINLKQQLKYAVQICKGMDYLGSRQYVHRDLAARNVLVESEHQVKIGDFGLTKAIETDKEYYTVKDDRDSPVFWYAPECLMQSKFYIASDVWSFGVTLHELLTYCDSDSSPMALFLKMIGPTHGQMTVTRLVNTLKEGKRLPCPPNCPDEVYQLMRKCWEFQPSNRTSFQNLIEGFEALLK
(§2) Janus kinases (JAK), including JAK1, JAK2, JAK3 and Tyk2, transduce a cytokine-mediated signal through a JAK-STAT pathway. The kinases are 120-140 kDa in size and have 7 determined homology regions: JH1 to JH7. JH1 is an important region for enzymatic activity and has typical characteristics of tyrosine kinases. Phosphorylation of tyrosine leads to a change in the conformation of JAK protein, thereby promoting binding of substrate. The JAK-STAT system includes three main parts: receptors penetrating a cell membrane, Janus kinases binding to the receptors, and signal transducers and activators of transcription (STAT) for transmitting signals to a nucleus and DNA. When cytokines bind to receptors, JAK phosphorylates the receptors and attracts STAT proteins. The STAT proteins are also phosphorylated and combined with one another to form dimers. The dimers enter the nucleus and bind to DNA, thereby leading to gene transcription.
(§3) EZ Reader from PerkinElmer can be used to detect the phosphorylation of polypeptide substrates catalyzed by kinases. The device is based on microfluidic techniques, and can directly detect fluorescently labeled substrates and products. The separation step is achieved by controlling the pressure and electric field strength in the microfluidic chip. In kinase assays, a product conversion ratio is usually controlled to be 20-30%. A biological test is used to identify inhibitory effects of compounds on JAKs.
(§4) Compound powder was dissolved in DMSO, sealed and stored in a freezer under −20° C. The in-house compound Ref1 was used as a positive control for JAK1, JAK2 and Tyk2 tests, and Ref2 was used as a positive control for JAK3 tests.
(§5) S2.8. Assay buffer: 20 mM HEPES buffer, pH 7.4, 10 mM magnesium chloride, 0.01% bovine serum albumin BSA, 0.0005% Tween-20 and 1 mM dithiothreitol solution.
(§6) S2.9. Stop buffer: 180 mM HEPES buffer, 20 mM ethylenediaminetetraacetic acid and 0.2% coating reagent 3.
(§7) S2.10. Separation buffer: 100 mM HEPES buffer, 10 mM ethylenediaminetetraacetic acid, 0.0005% Tween 20, 0.1% coating reagent 3 and 1% dimethyl sulfoxide.
(§8) The compound was dissolved in dimethyl sulfoxide and diluted to 10 mM concentration, a certain volume of solution was taken and diluted to 0.6 mM concentration, 10 μL of the 0.6 mM dilution was added to a 384-well microplate, and then was diluted 3-fold with a total of 8 concentration points.
(§9) Positive control (HPE1): Ref1, final concentration: 10 μM […]
(§10) Negative control (ZPE): DMSO, final content: 1.6%
(§11) Compounds: maximum final concentration: 10 μM; 3-fold dilution, 8 concentration points and 2 duplicates.
(§12) S4.1. 250 nL of the compound was added to each well of the assay microplate by using ECHO, and centrifuged at 1000 rpm for 1 minute.
(§13) S4.2. 5 μL of the assay buffer was added and agitated for a few seconds to fully dissolve the compound.
(§14) S4.3. 5 μL of 3× substrate solution and 5 μL of 3× kinase solution were added and centrifuged at 800 rpm for 1 minute.
(§15) S4.4. Final concentrations of JAK1, JAK2, JAK3 and Tyk2 kinases in the reaction system were 20 nM, 1 nM, 1 nM and 1 nM respectively.
(§16) S4.5. Incubation at room temperature, where kinases had time differences, and different batches of kinases had time differences.
(§17) S4.6. When 20%-30% of the reaction completed, 15 μL of stop buffer was added to stop the reaction, and centrifuged at 1000 rpm for 2 minutes.
(§18) S4.7. The microplates were placed on EZ Reader for reading.
(§19) S4.8. Readings on EZ Reader were calculated by using a peak height, where product conversion ratio (%)=product/(product+substrate)*100.
(§20) 5. Data Processing: IC50 calculation
(§21) A graphing software Xlfit was used to form a concentration curve of the test compound, and an IC50 value was calculated.
(§22) “A” means “≥10 μM”; “B” means “≥1 μM and <10 μM”; “C” means “≥0.1 μM and <1 μM”; and “D” means “<0.1 μM”.

Another assay has as its target Tyk2 (Homo sapiens, UniProt P29597). The experiment in a line: JAK kinase inhibition assay (EZ Reader, peptide substrate phosphorylation) - Tyk2. The format is biochemical. Conditions: Tyk2 kinase 1 nM; 8 concentration points, max 10 μM.
Excerpt: as §1, §2, §3, §4, §5, §6, §7, §8, §9, §10, §11, §12, §13, §14, §15, §16, §17, §18, §19, §20, §21, §22

Chain of Tyk2 (P29597 whole entry): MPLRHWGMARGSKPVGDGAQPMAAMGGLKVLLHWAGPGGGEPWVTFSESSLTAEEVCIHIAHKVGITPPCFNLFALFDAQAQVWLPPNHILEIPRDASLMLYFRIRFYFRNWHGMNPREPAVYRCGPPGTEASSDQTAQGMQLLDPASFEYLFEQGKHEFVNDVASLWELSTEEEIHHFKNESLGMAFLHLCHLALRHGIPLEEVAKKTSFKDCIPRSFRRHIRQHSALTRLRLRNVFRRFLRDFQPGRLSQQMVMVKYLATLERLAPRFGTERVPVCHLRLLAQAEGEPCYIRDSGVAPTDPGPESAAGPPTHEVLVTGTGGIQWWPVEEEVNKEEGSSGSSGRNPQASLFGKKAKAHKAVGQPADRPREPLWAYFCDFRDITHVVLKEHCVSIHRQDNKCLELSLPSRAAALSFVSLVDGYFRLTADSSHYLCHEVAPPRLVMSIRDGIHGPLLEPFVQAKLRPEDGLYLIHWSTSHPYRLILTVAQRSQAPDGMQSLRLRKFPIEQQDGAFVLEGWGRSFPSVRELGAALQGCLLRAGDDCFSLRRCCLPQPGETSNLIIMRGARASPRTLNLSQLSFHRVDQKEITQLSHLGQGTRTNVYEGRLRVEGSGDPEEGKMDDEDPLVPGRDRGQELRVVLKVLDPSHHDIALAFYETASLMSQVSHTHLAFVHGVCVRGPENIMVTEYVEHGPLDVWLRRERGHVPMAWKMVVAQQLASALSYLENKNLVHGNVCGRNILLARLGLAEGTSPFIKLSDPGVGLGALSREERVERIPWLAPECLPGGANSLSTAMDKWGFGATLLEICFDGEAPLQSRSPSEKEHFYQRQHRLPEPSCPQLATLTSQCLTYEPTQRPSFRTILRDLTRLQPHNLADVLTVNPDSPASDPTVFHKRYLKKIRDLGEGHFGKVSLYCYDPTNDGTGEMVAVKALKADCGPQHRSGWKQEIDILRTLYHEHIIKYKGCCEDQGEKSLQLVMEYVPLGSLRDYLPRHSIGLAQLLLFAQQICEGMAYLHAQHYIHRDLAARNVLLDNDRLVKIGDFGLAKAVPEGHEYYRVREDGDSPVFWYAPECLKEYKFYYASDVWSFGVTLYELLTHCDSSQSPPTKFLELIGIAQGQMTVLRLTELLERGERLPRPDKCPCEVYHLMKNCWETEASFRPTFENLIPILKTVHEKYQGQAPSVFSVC

In the case of `CCCS(=O)(=O)Nc1ccc(-c2ccnc(Nc3cnn(C)c3)n2)cn1` [TDM-180901, N-(5-(2-((1-methyl-1H-pyrazol-4-yl)amino)pyrimidin-4-yl)pyridin-2-yl)propane-1-sulfonamide], the IC50 against JAK1 was 1 to 10 µM; against Tyk2, at least 10 µM.
On the same counts, the results for `Cn1cc(Nc2nccc(-c3cnc(NC(=O)CC#N)nc3)n2)cn1` [TDM-180902, 2-cyano-N-(2-((1-methyl-1H-pyrazol-4-yl)amino)-[4,5′-bipyrimidin]-2′-yl)acetamide] are 1 to 10 µM and 1 to 10 µM.
In the same order, the values of `Cn1cc(Nc2nccc(-c3ccc(NS(=O)(=O)CCCF)nc3)n2)cn1` [TDM-180903, 3-fluoro-N-(5-(2-((1-methyl-1H-pyrazol-4-yl)amino)pyrimidin-4-yl)pyridin-2-yl)propane-1-sulfonamide] are 1 to 10 µM and 1 to 10 µM.
On the same counts, the results for `Cn1cc(Nc2nccc(-c3cnc(NC(=O)C4CC4)nc3)n2)cn1` [TDM-180904, N-(2-((1-methyl-1H-pyrazol-4-yl)amino)-[4,5′-bipyrimidin]-2′-yl)cyclopropanecarboxamide] are 1 to 10 µM and 1 to 10 µM.
Consider `Cn1cc(Nc2nccc(-c3cnc(NC(=O)CC(F)(F)F)cn3)n2)cn1` [TDM-180905, 3,3,3-trifluoro-N-(5-(2-((1-methyl-1H-pyrazol-4-yl)amino)pyrimidin-4-yl)pyrazin-2-yl)propanamide], for which the IC50 at JAK1 was 0.1 to 1 µM; on Tyk2 it was 1 to 10 µM.
In the case of `Cc1cc(-c2ccnc(Nc3cnn(C)c3)n2)cnc1NC(=O)C1CC1(F)F` (centres unmarked) [TDM-180906, 2,2-difluoro-N-(3-methyl-5-(2-((1-methyl-1H-pyrazol-4-yl)amino)pyrimidin-4-yl)pyridin-2-yl)cyclopropane-1-carboxamide], the IC50 fell in the range of 0.1 to 1 µM on JAK1 and 1 to 10 µM against Tyk2.
Take `Cc1cc(-c2ccnc(Nc3cnn(C)c3)n2)cnc1NC(=O)CC#N` [TDM-180907, 2-cyano-N-(3-methyl-5-(2-((1-methyl-1H-pyrazol-4-yl)amino)pyrimidin-4-yl)pyridin-2-yl)acetamide]: the IC50 against JAK1 and against Tyk2 was 1 to 10 µM throughout.
On to `Cc1cc(-c2ccnc(Nc3cnn(C)c3)n2)cnc1NC(=O)CC(F)(F)F` [TDM-180908, 3,3,3-trifluoro-N-(3-methyl-5-(2-((1-methyl-1H-pyrazol-4-yl)amino)pyrimidin-4-yl)pyridin-2-yl)propanamide], for which the values for the IC50 against JAK1 and at Tyk2 were 0.1 to 1 µM and 1 to 10 µM, respectively.
On to `Cc1cc(-c2ccnc(Nc3cnn(C)c3)n2)cnc1NC(=O)C1CC1` [TDM-180910, N-(3-methyl-5-(2-((1-methyl-1H-pyrazol-4-yl)amino)pyrimidin-4-yl)pyridin-2-yl)cyclopropanemethane], for which the values for the IC50 on JAK1 and on Tyk2 were 1 to 10 µM and at least 10 µM, respectively.
On the same counts, the results for `Cn1cc(Nc2nccc(-n3ccc4c(NC(=O)CC5CC5)cccc43)n2)cn1` [TDM-180911, 2-cyclopropyl-N-(1-(2-((1-methyl-1H-pyrazol-4-yl)amino)pyrimidin-4-yl)-1H-indol-4-yl)acetamide] are 0.1 to 1 µM and 1 to 10 µM.
In the same order, the values of `Cn1cc(Nc2nccc(-c3cnc(NS(=O)(=O)Cc4ccccc4)c(F)c3)n2)cn1` [TDM-180913, N-(3-fluoro-5-(2-((1-methyl-1H-pyrazol-4-yl)amino)pyrimidin-4-yl)pyridin-2-yl)-1-phenylmethanesulfonamide] are at least 10 µM and at least 10 µM.
Regarding `Cn1cc(Nc2nccc(-c3cnc(NC(=O)C4CC4)cn3)n2)cn1` [TDM-180914, N-(5-(2-((1-methyl-1H-pyrazol-4-yl)amino)pyrimidin-4-yl)pyrazin-2-yl)cyclopropanemethane], the IC50 on JAK1 and against Tyk2 was 1 to 10 µM each time.
Turning to `Cn1cc(Nc2nccc(-c3ccc(NC(=O)CC4CC4)c4[nH]ncc34)n2)cn1` [TDM-180917, 2-cyclopropyl-N-(4-(2-((1-methyl-1H-pyrazol-4-yl)amino)pyrimidin-4-yl)-1H-indazol-7-yl)acetamide], the IC50 against JAK1 and at Tyk2 was 0.1 to 1 µM throughout.
Regarding `CCS(=O)(=O)Nc1ncc(-c2ccnc(Nc3cnn(C)c3)n2)cn1` [TDM-180919, N-(2-((1-methyl-1H-pyrazol-4-yl)amino)-[4,5′-bipyrimidin]-2′-yl)ethanesulfonamide], the IC50 against JAK1 and on Tyk2 was at least 10 µM in each case.
Take `Cn1cc(Nc2nccc(-c3ccc(NC(=O)CC4CC4)c4[nH]ccc34)n2)cn1` [TDM-180920]: the IC50 against JAK1 and against Tyk2 was 0.1 to 1 µM throughout.
Turning to `Cn1cc(Nc2nccc(-c3cnc(NS(=O)(=O)Cc4ccccc4)nc3)n2)cn1` [TDM-180921, N-(2-((1-methyl-1H-pyrazol-4-yl)amino)-[4,5′-bipyrimidin]-2′-yl)-1-phenylmethanesulfonamide], the IC50 at JAK1 and on Tyk2 was at least 10 µM in each case.
Consider `Cn1cc(Nc2nccc(-c3ccc(NC(=O)CC#N)c4cc[nH]c34)n2)cn1` [TDM-180923], for which the IC50 against JAK1 is 0.1 to 1 µM; on Tyk2, at least 10 µM.
On the same counts, the results for `Cn1cc(Nc2nccc(-c3ccc(NC(=O)CC(F)(F)F)c4cc[nH]c34)n2)cn1` [TDM-180924, 3,3,3-trifluoro-N-(7-(2-((1-methyl-1H-pyrazol-4-yl)amino)pyrimidin-4-yl)-1H-indol-4-yl)propanamide] are 0.1 to 1 µM and 1 to 10 µM.
On the same counts, the results for `Cn1cc(Nc2nccc(-c3ccc(NC(=O)C4CC4)c4cc[nH]c34)n2)cn1` [TDM-180926, N-(7-(2-((1-methyl-1H-pyrazol-4-yl)amino)pyrimidin-4-yl)-1H-indole-4-yl)cyclopropanecarboxamide] are at least 10 µM and at least 10 µM.
In the same order, the values of `Cn1cc(Nc2nccc(-c3ccc(NC(=O)C4CC4(F)F)c4cc[nH]c34)n2)cn1` (centres unmarked) [TDM-180929, 2,2-difluoro-N-(7-(2-((1-methyl-1H-pyrazol-4-yl)amino)pyrimidin-4-yl)-1H-indol-4-yl)cyclopropane-1-carboxamide] are 1 to 10 µM and at least 10 µM.
`Cn1cc(Nc2nccc(-c3ccc(NC(=O)CC4CC4)c4cc[nH]c34)n2)cn1` [TDM-180933]: the IC50 is 1 to 10 µM on JAK1 and at least 10 µM on Tyk2.
`Cn1cc(Nc2nccc(-c3ccc(NC(=O)[C@@H]4CC4(F)F)cc3)n2)cn1` [TDM-180934]: the IC50 at JAK1 and on Tyk2 was below 0.1 µM each time.
For `Cn1cc(Nc2nccc(-c3ccc(NC(=O)[C@@H]4CC4(F)F)nc3)n2)cn1` [TDM-180935, (S)-2,2-difluoro-N-(5-(2-((1-methyl-1H-pyrazol-4-yl)amino)pyrimidin-4-yl)pyridin-2-yl)cyclopropane-1-carboxamide], the IC50 against JAK1 and against Tyk2 was below 0.1 µM in each case.
In the case of `Cn1cc(Nc2nccc(-c3ccc(NC(=O)[C@H]4CC4(F)F)cc3)n2)cn1` [TDM-180936, (R)-2,2-difluoro-N-(4-(2-((1-methyl-1H-pyrazol-4-yl)amino)pyrimidin-4-yl)phenyl)cyclopropane-1-carboxamide], the values for the IC50 against JAK1 and on Tyk2 were below 0.1 µM and 0.1 to 1 µM, respectively.
As to `Cn1cc(Nc2nccc(-c3ccc(NC(=O)[C@H]4CC4(F)F)nc3)n2)cn1` [TDM-180939, (R)-2,2-difluoro-N-(5-(2-((1-methyl-1H-pyrazol-4-yl)amino)pyrimidin-4-yl)pyridin-2-yl)cyclopropane-1-carboxamide], the IC50 is below 0.1 µM against JAK1 and 0.1 to 1 µM against Tyk2.

Usually IC50 stands for the concentration needed to halve the response being measured. A high value points to a need for much substance.
